Experimental data reported in ChEMBL document CHEMBL1275354, “Anticonvulsant activity of 2,4(1H)-diarylimidazoles in mice and rats acute seizure models” (Bioorg Med Chem, 2010).
The source made the active and inactive calls. The calls are words filed in the database; no cut-off is given here.

What was measured:
Mus musculus [1] = assay: Neurotoxicity in ip dosed albino CF1 mouse assessed as minimum dose required to cause toxicity after 0.5 hrs by rotarod test; assay type: organism-based; conditions: in vivo
Mus musculus [2] = assay: Neurotoxicity in albino CF1 mouse assessed as minimal motor impairment at 30 mg/kg, ip after 0.5 hrs by rotarod test; assay type: toxicity, organism-based; set-up: dose 30 mg/kg, route intraperitoneal; conditions: in vivo
Mus musculus [3] = assay: Anticonvulsant activity in albino CF1 mouse assessed as protection against maximal electroshock-induced seizures at 100 mg/kg, ip after 0.5 hrs; assay type: functional, organism-based; set-up: dose 100 mg/kg
Mus musculus [4] = assay: Anticonvulsant activity against subcutaneous metrazole-induced seizures in ip dosed albino CF1 mouse assessed as minimum effective dose after 4 hrs; assay type: functional; conditions: albino CF1, 4 h, read-out: MED
Rattus norvegicus [5] = assay: Neurotoxicity in albino Sprague-Dawley rat assessed as minimal motor impairment at 30 mg/kg, po by rotarod test; assay type: toxicity, organism-based; set-up: dose 30 mg/kg, route oral; conditions: in vivo
Rattus norvegicus [6] = assay: Anticonvulsant activity in albino Sprague-Dawley rat assessed as protection against maximal electroshock-induced seizures at 30 mg/kg, po after 0.25 hrs; assay type: functional, organism-based; set-up: dose 30 mg/kg
Rattus norvegicus [7] = assay: Anticonvulsant activity in albino Sprague-Dawley rat assessed as protection against maximal electroshock-induced seizures at 30 mg/kg, po after 0.5 hrs; assay type: functional, organism-based; set-up: dose 30 mg/kg
Rattus norvegicus [8] = assay: Anticonvulsant activity in albino Sprague-Dawley rat assessed as protection against maximal electroshock-induced seizures at 30 mg/kg, po after 1 hr; assay type: functional, organism-based; set-up: dose 30 mg/kg
Rattus norvegicus [9] = assay: Anticonvulsant activity in albino Sprague-Dawley rat assessed as protection against maximal electroshock-induced seizures at 30 mg/kg, po after 2 hrs; assay type: functional, organism-based; set-up: dose 30 mg/kg
Rattus norvegicus [10] = assay: Anticonvulsant activity in albino Sprague-Dawley rat assessed as protection against maximal electroshock-induced seizures at 30 mg/kg, po after 4 hrs; assay type: functional, organism-based; set-up: dose 30 mg/kg
Mus musculus [11] = assay: Neurotoxicity in albino CF1 mouse assessed as minimal motor impairment at 30 mg/kg, ip after 4 hrs by rotarod test; assay type: toxicity, organism-based; set-up: dose 30 mg/kg, route intraperitoneal; conditions: in vivo
Mus musculus [12] = assay: Neurotoxicity in albino CF1 mouse assessed as minimal motor impairment at 100 mg/kg, ip after 0.5 hrs by rotarod test; assay type: toxicity, organism-based; set-up: dose 100 mg/kg, route intraperitoneal; conditions: in vivo
Mus musculus [13] = assay: Neurotoxicity in albino CF1 mouse assessed as minimal motor impairment at 100 mg/kg, ip after 4 hrs by rotarod test; assay type: toxicity, organism-based; set-up: dose 100 mg/kg, route intraperitoneal; conditions: in vivo
Mus musculus [14] = assay: Neurotoxicity in albino CF1 mouse assessed as minimal motor impairment at 300 mg/kg, ip after 0.5 hrs by rotarod test; assay type: toxicity, organism-based; set-up: dose 300 mg/kg, route intraperitoneal; conditions: in vivo
Mus musculus [15] = assay: Neurotoxicity in albino CF1 mouse assessed as minimal motor impairment at 300 mg/kg, ip after 4 hrs by rotarod test; assay type: toxicity, organism-based; set-up: dose 300 mg/kg, route intraperitoneal; conditions: in vivo
Mus musculus [16] = assay: Anticonvulsant activity in albino CF1 mouse assessed as protection against maximal electroshock-induced seizures at 300 mg/kg, ip after 0.5 hrs; assay type: functional, organism-based; set-up: dose 300 mg/kg
Mus musculus [17] = assay: Anticonvulsant activity in albino CF1 mouse assessed as protection against maximal electroshock-induced seizures at 300 mg/kg, ip after 4 hrs; assay type: functional, organism-based; set-up: dose 300 mg/kg
Mus musculus [18] = assay: Anticonvulsant activity in albino CF1 mouse assessed as protection against subcutaneous metrazole-induced seizures at 30 mg/kg, ip after 0.5 hrs; assay type: functional, organism-based; set-up: dose 30 mg/kg
Mus musculus [19] = assay: Anticonvulsant activity in albino CF1 mouse assessed as protection against subcutaneous metrazole-induced seizures at 30 mg/kg, ip after 4 hrs; assay type: functional, organism-based; set-up: dose 30 mg/kg
Mus musculus [20] = assay: Anticonvulsant activity in albino CF1 mouse assessed as protection against subcutaneous metrazole-induced seizures at 100 mg/kg, ip after 0.5 hrs; assay type: functional, organism-based; set-up: dose 100 mg/kg
Mus musculus [21] = assay: Anticonvulsant activity in albino CF1 mouse assessed as protection against subcutaneous metrazole-induced seizures at 100 mg/kg, ip after 4 hrs; assay type: functional, organism-based; set-up: dose 100 mg/kg
Mus musculus [22] = assay: Anticonvulsant activity in albino CF1 mouse assessed as protection against subcutaneous metrazole-induced seizures at 300 mg/kg, ip after 0.5 hrs; assay type: functional, organism-based; set-up: dose 300 mg/kg
Mus musculus [23] = assay: Anticonvulsant activity in albino CF1 mouse assessed as protection against subcutaneous metrazole-induced seizures at 300 mg/kg, ip after 4 hrs; assay type: functional, organism-based; set-up: dose 300 mg/kg
Mus musculus [24] = assay: Anticonvulsant activity in albino CF1 mouse assessed as protection against maximal electroshock-induced seizures at 30 mg/kg, ip after 0.5 hrs; assay type: functional, organism-based; set-up: dose 30 mg/kg
Mus musculus [25] = assay: Anticonvulsant activity in albino CF1 mouse assessed as protection against maximal electroshock-induced seizures at 30 mg/kg, ip after 4 hrs; assay type: functional, organism-based; set-up: dose 30 mg/kg
Mus musculus [26] = assay: Neurotoxicity in ip dosed albino CF1 mouse assessed as minimum dose required to cause toxicity after 4 hrs by rotarod test; assay type: organism-based; conditions: in vivo
Mus musculus [27] = assay: Anticonvulsant activity against maximal electroshock-induced seizures in ip dosed albino CF1 mouse assessed as minimum effective dose after 0.5 hrs; assay type: functional; conditions: read-out: MED
Mus musculus [28] = assay: Anticonvulsant activity against maximal electroshock-induced seizures in ip dosed albino CF1 mouse assessed as minimum effective dose after 4 hrs; assay type: functional; conditions: read-out: MED
Mus musculus [29] = assay: Anticonvulsant activity against subcutaneous metrazole-induced seizures in ip dosed albino CF1 mouse assessed as minimum effective dose after 0.5 hrs; assay type: functional; conditions: albino CF1, 0.5 h, read-out: MED
Mus musculus [30] = assay: Neurotoxicity in albino CF1 mouse assessed as minimal motor impairment at 30 to 300 mg/kg, ip after 0.5 hrs by rotarod test; conditions: in vivo
Mus musculus [31] = assay: Anticonvulsant activity in albino CF1 mouse assessed as protection against maximal electroshock-induced seizures at 100 mg/kg, ip after 2 hrs; assay type: functional, organism-based; set-up: dose 100 mg/kg
Mus musculus [32] = assay: Anticonvulsant activity in albino CF1 mouse assessed as protection against maximal electroshock-induced seizures at 100 mg/kg, ip after 4 hrs; assay type: functional, organism-based; set-up: dose 100 mg/kg
Mus musculus [33] = assay: Neurotoxicity in albino CF1 mouse assessed as minimal motor impairment at 30 to 300 mg/kg, po after 4 hrs by rotarod test; assay type: toxicity, organism-based; set-up: dose 30-300 mg/kg, route oral; conditions: in vivo

SMILES | MED (Mus musculus [1]) [mg/kg] | Activity (Mus musculus [2]) | minimal effective dose (Mus musculus [4]) [mg/kg] | Activity (Mus musculus [11]) | Activity (Mus musculus [12]) | Activity (Mus musculus [13]) | Activity (Mus musculus [15]) | Activity (Mus musculus [16]) | Activity (Mus musculus [17]) | Activity (Mus musculus [18]) | Activity (Mus musculus [19]) | Activity (Mus musculus [20]) | Activity (Mus musculus [21]) | Activity (Mus musculus [22]) | Activity (Mus musculus [23]) | Activity (Mus musculus [24]) | Activity (Mus musculus [25]) | MED (Mus musculus [26]) [mg/kg] | minimal effective dose (Mus musculus [27]) [mg/kg] | minimal effective dose (Mus musculus [28]) [mg/kg] | other results
COc1ccc(-c2c[nH]c(-c3ccccc3)n2)cc1 | 100 | Non-toxic | > 300 | Non-toxic | Non-toxic | Non-toxic | Toxic | Active | Active | inactive | inactive | inactive | inactive | Active | inactive | inactive | inactive | 100 | > 30 | 100 | Activity (Mus musculus [3]): Active; Activity (Rattus norvegicus [5]): Non-toxic; Activity (Rattus norvegicus [6]): inactive; Activity (Rattus norvegicus [7]): inactive; Activity (Rattus norvegicus [8]): inactive; Activity (Rattus norvegicus [9]): inactive; Activity (Rattus norvegicus [10]): inactive; Activity (Mus musculus [14]): Toxic; minimal effective dose (Mus musculus [29]): 100 mg/kg; Activity (Mus musculus [30]): Non-toxic
FC(F)(F)c1cccc(-c2nc(-c3ccccc3)c[nH]2)c1 | 100 | Non-toxic | > 300 | Non-toxic | Non-toxic | Non-toxic | Non-toxic | inactive | Active | inactive | inactive | inactive | inactive | inactive | inactive | inactive | inactive | > 300 | > 300 | 100 | Activity (Mus musculus [3]): inactive; Activity (Mus musculus [31]): inactive; Activity (Mus musculus [32]): inactive; Activity (Mus musculus [33]): Non-toxic; minimal effective dose (Mus musculus [29]): > 300 mg/kg; Activity (Mus musculus [30]): Non-toxic
O=[N+]([O-])c1cccc(-c2c[nH]c(-c3ccccc3)n2)c1 | > 300 | Non-toxic | > 300 | Non-toxic | Non-toxic | Non-toxic | Non-toxic | Active | Active | inactive | inactive | inactive | inactive | inactive | inactive | inactive | inactive | > 300 | 100 | 100 | Activity (Rattus norvegicus [5]): Non-toxic; Activity (Rattus norvegicus [6]): inactive; Activity (Rattus norvegicus [7]): inactive; Activity (Rattus norvegicus [8]): inactive; Activity (Rattus norvegicus [9]): inactive; Activity (Rattus norvegicus [10]): inactive; Activity (Mus musculus [14]): Non-toxic; Activity (Mus musculus [32]): inactive; Activity (Mus musculus [33]): Non-toxic; minimal effective dose (Mus musculus [29]): > 300 mg/kg; Activity (Mus musculus [30]): Non-toxic
O=[N+]([O-])c1cccc(-c2nc(-c3ccccc3)c[nH]2)c1 | > 300 | Non-toxic | > 300 | Non-toxic | Non-toxic | Non-toxic | Non-toxic | Active | Active | inactive | inactive | inactive | inactive | inactive | inactive | inactive | inactive | > 300 | 100 | 100 | Activity (Rattus norvegicus [5]): Non-toxic; Activity (Rattus norvegicus [6]): inactive; Activity (Rattus norvegicus [7]): inactive; Activity (Rattus norvegicus [8]): inactive; Activity (Rattus norvegicus [9]): inactive; Activity (Rattus norvegicus [10]): inactive; Activity (Mus musculus [14]): Non-toxic; Activity (Mus musculus [32]): inactive; Activity (Mus musculus [33]): Non-toxic; minimal effective dose (Mus musculus [29]): > 300 mg/kg; Activity (Mus musculus [30]): Non-toxic
